Values of other authors, collected in patent US12527751B2, “Oral thin film with high active agent loading” (LTS LOHMANN THERAPIE-SYSTEME AG, priority 2017, dated 2026).

Details: compared with (R) ketamine

Structure (SMILES): CNC1(c2ccccc2Cl)CCCCC1=O (racemic) [(S) ketamine, (S)-(±)-2-(2-chlorophenyl)-2-(methylamino)cyclohexan-1-one]
- Analgesic and anaesthetic potency relative to the (R) form: approximately three times higher
